In patent US10717799B2, “Copolymers as excipients for effective solubilization of poorly water-soluble substances from solid mixtures” (Dow Global Technologies LLC, priority 2015, dated 2020):
≈ marks a conversion by molar mass, not a printed value.

Assay: not given
Conditions: pH 6.5

First: poly-[(N,N-diethylacrylamide)-co-(N,N-dimethylacrylamide)] [Example 5-1]
Second: poly-[(N,N-diethylacrylamide)-co-(N,N-dimethylacrylamide)] [Example 5-2]
The “c(30 min) concentration of solubilized Phenytoin” value of the first is 1.9-fold lower: 172 mg/L for the first, 319 mg/L for the second.

“poly-[(N,N-diethylacrylamide)-co-(N,N-dimethylacrylamide)] [Example 5-3]” and “poly-[(N,N-diethylacrylamide)-co-(N,N-dimethylacrylamide)] [Example 5-4]” are within 1.5-fold of each other in “c(30 min) concentration of solubilized Phenytoin” value: 595 mg/L for the first, 646 mg/L for the second.

Going from “poly-[(N,N-diethylacrylamide)-co-(N,N-dimethylacrylamide)] [Example 5-5]” to “poly-[(N-isopropylacrylamide)-co-(N,N-dimethylacrylamide)] [Example 1-3]”, the “c(30 min) concentration of solubilized Phenytoin” value rises from 348 mg/L to 992 mg/L (2.9-fold).

“poly-[(N-isopropylacrylamide)-co-(N,N-dimethylacrylamide)] [Example 1-5]” and “poly-[(N-isopropylacrylamide)-co-(N,N-dimethylacrylamide)] [Example 1-6]” are within 1.5-fold of each other in “c(30 min) concentration of solubilized Phenytoin” value: 942 mg/L for the first, 962 mg/L for the second.

“poly-[(N-isopropylacrylamide)-co-(N,N-dimethylacrylamide)] [Example 1-7]” and “poly-[(N-isopropylacrylamide)-co-(N,N-dimethylacrylamide)] [Example 1-8]” are within 1.5-fold of each other in “c(30 min) concentration of solubilized Phenytoin” value: 156 mg/L for the first, 183 mg/L for the second.

“poly-[(N-isopropylacrylamide)-co-(N,N-dimethylacrylamide)] [Example 1-9]” and “poly-[(N-isopropylacrylamide)-co-(N,N-dimethylacrylamide)] [Example 1-10]” are within 1.5-fold of each other in “c(30 min) concentration of solubilized Phenytoin” value: 301 mg/L for the first, 392 mg/L for the second.

Compared with “poly-[(N-isopropylacrylamide)-co-(N,N-dimethylacrylamide)] [Example 1-11]”, “poly-[(N-isopropylacrylamide)-co-(N,N-dimethylacrylamide)] [Example 1-15]” is 1.9-fold lower in “c(30 min) concentration of solubilized Phenytoin” value: 895 mg/L for the first, 479 mg/L for the second.

With “poly-[(N-isopropylacrylamide)-co-(N,N-dimethylacrylamide)] [Example 1-16]” the “c(30 min) concentration of solubilized Phenytoin” value was 413 mg/L.

Going from “poly-[(N,N-diethylacrylamide)-co-(N,N-dimethylacrylamide)] [Example 5-1]” to “poly-[(N,N-diethylacrylamide)-co-(N,N-dimethylacrylamide)] [Example 5-2]”, the “c(90 min) concentration of solubilized Phenytoin” value rises from 197 mg/L to 322 mg/L (1.6-fold).

Going from “poly-[(N,N-diethylacrylamide)-co-(N,N-dimethylacrylamide)] [Example 5-3]” to “poly-[(N,N-diethylacrylamide)-co-(N,N-dimethylacrylamide)] [Example 5-4]”, the “c(90 min) concentration of solubilized Phenytoin” value rises from 413 mg/L to 667 mg/L (1.6-fold).

Going from “poly-[(N,N-diethylacrylamide)-co-(N,N-dimethylacrylamide)] [Example 5-5]” to “poly-[(N-isopropylacrylamide)-co-(N,N-dimethylacrylamide)] [Example 1-3]”, the “c(90 min) concentration of solubilized Phenytoin” value rises from 359 mg/L to 794 mg/L (2.2-fold).

“poly-[(N-isopropylacrylamide)-co-(N,N-dimethylacrylamide)] [Example 1-4]” and “poly-[(N-isopropylacrylamide)-co-(N,N-dimethylacrylamide)] [Example 1-5]” are within 1.5-fold of each other in “c(90 min) concentration of solubilized Phenytoin” value: 758 mg/L for the first, 759 mg/L for the second.

First: poly-[(N-isopropylacrylamide)-co-(N,N-dimethylacrylamide)] [Example 1-6]
Second: poly-[(N-isopropylacrylamide)-co-(N,N-dimethylacrylamide)] [Example 1-7]
The “c(90 min) concentration of solubilized Phenytoin” value of the first is 4.7-fold higher: 649 mg/L for the first, 137 mg/L for the second.

First: poly-[(N-isopropylacrylamide)-co-(N,N-dimethylacrylamide)] [Example 1-8]
Second: poly-[(N-isopropylacrylamide)-co-(N,N-dimethylacrylamide)] [Example 1-9]
The “c(90 min) concentration of solubilized Phenytoin” value of the first is 1.5-fold lower: 173 mg/L for the first, 266 mg/L for the second.

“poly-[(N-isopropylacrylamide)-co-(N,N-dimethylacrylamide)] [Example 1-10]” and “poly-[(N-isopropylacrylamide)-co-(N,N-dimethylacrylamide)] [Example 1-11]” are within 1.5-fold of each other in “c(90 min) concentration of solubilized Phenytoin” value: 281 mg/L for the first, 343 mg/L for the second.

“poly-[(N-isopropylacrylamide)-co-(N,N-dimethylacrylamide)] [Example 1-15]” and “poly-[(N-isopropylacrylamide)-co-(N,N-dimethylacrylamide)] [Example 1-16]” are within 1.5-fold of each other in “c(90 min) concentration of solubilized Phenytoin” value: 455 mg/L for the first, 379 mg/L for the second.

First: poly-[(N,N-diethylacrylamide)-co-(N,N-dimethylacrylamide)] [Example 5-1]
Second: poly-[(N,N-diethylacrylamide)-co-(N,N-dimethylacrylamide)] [Example 5-2]
The “c(180 min) concentration of solubilized Phenytoin” value of the first is 1.6-fold lower: 137 mg/L for the first, 223 mg/L for the second.

Compared with “poly-[(N,N-diethylacrylamide)-co-(N,N-dimethylacrylamide)] [Example 5-3]”, “poly-[(N,N-diethylacrylamide)-co-(N,N-dimethylacrylamide)] [Example 5-4]” is 2.3-fold higher in “c(180 min) concentration of solubilized Phenytoin” value: 257 mg/L for the first, 591 mg/L for the second.

Compared with “poly-[(N,N-diethylacrylamide)-co-(N,N-dimethylacrylamide)] [Example 5-5]”, “poly-[(N-isopropylacrylamide)-co-(N,N-dimethylacrylamide)] [Example 1-3]” is 3-fold higher in “c(180 min) concentration of solubilized Phenytoin” value: 295 mg/L for the first, 876 mg/L for the second.

“poly-[(N-isopropylacrylamide)-co-(N,N-dimethylacrylamide)] [Example 1-4]” and “poly-[(N-isopropylacrylamide)-co-(N,N-dimethylacrylamide)] [Example 1-5]” are within 1.5-fold of each other in “c(180 min) concentration of solubilized Phenytoin” value: 936 mg/L for the first, 823 mg/L for the second.

Compared with “poly-[(N-isopropylacrylamide)-co-(N,N-dimethylacrylamide)] [Example 1-6]”, “poly-[(N-isopropylacrylamide)-co-(N,N-dimethylacrylamide)] [Example 1-7]” is 6-fold lower in “c(180 min) concentration of solubilized Phenytoin” value: 875 mg/L for the first, 145 mg/L for the second.

“poly-[(N-isopropylacrylamide)-co-(N,N-dimethylacrylamide)] [Example 1-8]” and “poly-[(N-isopropylacrylamide)-co-(N,N-dimethylacrylamide)] [Example 1-9]” are within 1.5-fold of each other in “c(180 min) concentration of solubilized Phenytoin” value: 184 mg/L for the first, 265 mg/L for the second.

“poly-[(N-isopropylacrylamide)-co-(N,N-dimethylacrylamide)] [Example 1-10]” and “poly-[(N-isopropylacrylamide)-co-(N,N-dimethylacrylamide)] [Example 1-11]” are within 1.5-fold of each other in “c(180 min) concentration of solubilized Phenytoin” value: 255 mg/L for the first, 300 mg/L for the second.

“poly-[(N-isopropylacrylamide)-co-(N,N-dimethylacrylamide)] [Example 1-15]” and “poly-[(N-isopropylacrylamide)-co-(N,N-dimethylacrylamide)] [Example 1-16]” are within 1.5-fold of each other in “c(180 min) concentration of solubilized Phenytoin” value: 409 mg/L for the first, 407 mg/L for the second.

For “poly-[(N-isopropylacrylamide)-co-(N,N-dimethylacrylamide)] [Example 1-1]”, the “c(30 min) concentration of solubilized Phenytoin” value was 1,208 mg/L.
With “poly-[(N-isopropylacrylamide)-co-(N,N-dimethylacrylamide)] [Example 1-4]” the “c(30 min) concentration of solubilized Phenytoin” value was 1,066 mg/L.

With “poly-[(N-isopropylacrylamide)-co-(N,N-dimethylacrylamide)] [Example 1-1]” the “c(90 min) concentration of solubilized Phenytoin” value was 1,024 mg/L.

For “poly-[(N-isopropylacrylamide)-co-(N,N-dimethylacrylamide)] [Example 1-1]”, the “c(180 min) concentration of solubilized Phenytoin” value was 1,104 mg/L.

Assay: not given
Conditions: pH 6.5
Remark: another data set of the same source

In the case of “poly-[(N-isopropylacrylamide)-co-(N,N-dimethylacrylamide)] [Example 1-15]”, the “c(30 min) concentration of solubilized Nilutamide” value is reported as 828 mg/L.

For “poly-[(N-isopropylacrylamide)-co-(N,N-dimethylacrylamide)] [Example 1-15]”, the “c(90 min) concentration of solubilized Nilutamide” value was 833 mg/L.

For “poly-[(N-isopropylacrylamide)-co-(N,N-dimethylacrylamide)] [Example 1-15]”, the “c(180 min) concentration of solubilized Nilutamide” value was 848 mg/L.

Assay: not given
Conditions: pH 6.5
Remark: another data set of the same source

With “poly-[(N-isopropylacrylamide)-co-(N,N-dimethylacrylamide)] [Example 1-17]” the “solubilized drug concentration after continuous decrease” value was “below 200 mg/L”.

Assay: physchem
Conditions: 37 °C, pH 6.5, aqueous with cosolvent or surfactant or cyclodextrin, kinetic from dmso stock

For O=C1NC(=O)C(c2ccccc2)(c2ccccc2)N1 [Phenytoin], the solubility at 30 min was 75 µg/mL (≈ 297 µM).

Compound O=C1NC(=O)C(c2ccccc2)(c2ccccc2)N1 [Phenytoin] has a solubility at 90 min of 70 µg/mL (≈ 277 µM).

In the case of O=C1NC(=O)C(c2ccccc2)(c2ccccc2)N1 [Phenytoin], the solubility at 180 min is reported as 73 µg/mL (≈ 289 µM).

Assay: physchem
Conditions: 37 °C, pH 6.5, fassif, thermodynamic from solid

With O=C1NC(=O)C(c2ccccc2)(c2ccccc2)N1 [Phenytoin] the solubility at 4 min was about 50 µg/mL (≈ 198 µM).

Assay: Supersaturation (maintenance) test with Nilutamide
Conditions: phosphate buffer saline with 0.5 wt. % FaSSIF, 37 °C, pH 6.5, aqueous with cosolvent or surfactant or cyclodextrin, kinetic from dmso stock

CC1(C)NC(=O)N(c2ccc([N+](=O)[O-])c(C(F)(F)F)c2)C1=O [Nilutamide] showed a solubility at 30 min of 473 µg/mL (≈ 1490 µM).

CC1(C)NC(=O)N(c2ccc([N+](=O)[O-])c(C(F)(F)F)c2)C1=O [Nilutamide] gave a solubility at 90 min of 364 µg/mL (≈ 1150 µM).

For CC1(C)NC(=O)N(c2ccc([N+](=O)[O-])c(C(F)(F)F)c2)C1=O [Nilutamide], the solubility at 180 min was 308 µg/mL (≈ 971 µM).
